# Data published in US20250324955A1, “ZEBRAFISH MODEL OF HUMAN ACUTE MYELOID LEUKEMIA AND METHOD OF USE THEREOF” (Versitech Limited, priority 2022, published 2025).
# Columns and labels:
# [1] = tested on: FLT3^ITD and IDH2 double mutant zebrafish; test: 14-day oral gavage treatment of adult double transgenic leukemic fish, kidney marrow analysis; type: in vivo; settings: daily oral gavage 14 days, quizartinib 10 mg/kg, enasidenib 100 mg/kg
# Experimental: (§1) Zebrafish WKM were harvested from two to twelve months old transgenic or wildtype TU fish. The collected KM was dissociated in 0.9×PBS with 5% fetal bovine serum (FBS) by pipetting and filtered through a 40 μm nylon cell strainer (Corning, NY, USA). The cells were then centrifuged at 500 g for 5 minutes, resuspended, filtered, and washed with 0.9×PBS with 5% (FBS) at least twice. Flow cytometry of the KM was performed using a MoFlo XDP flow cytometer (Beckman coulter). The data was analyzed using FlowJo™ v10.6.1 software. Cytospin preparations were made with 2×10^5 to 3×10^5 cells cytocentrifuged at 400 rpm for 5 minutes onto microscope glass slides (Thermo scientific). The glass slides were dried at room temperature for more than 12 hours, stained with Wright-Giemsa stain, and imaged with Nikon DS-Ri2 digital camera fitted to a Nikon Eclipse Ni-U microscope.
# (§2) Drugs at three concentrations (0.01 μM, 0.1 μM and 1 μM) were added to the embryos in E3 medium with (1-phenyl-2-thiourea) PTU at 6 hpf, and the medium was changed every 24 hours. At 4 dpf, embryos were collected and fixed in 4% PFA for SSB staining. […] Adult zebrafish were anesthetized using 0.015% Tricaine. […] Treated zebrafish were then placed into an individual recovery tank with fresh sterile fish water immediately after the gavage procedure. The drug regimen was repeated daily for 14 days.
# [2] = tested on: Tg(Runx1:FLT3^ITDIDH2^R172K) zebrafish; test: 14-day oral gavage treatment of adult Tg(Runx1:FLT3^ITDIDH2^R172K) fish; type: in vivo; settings: adult Tg(Runx1:FLT3^ITDIDH2^R172K) double mutants; treatment with Quizartinib and/or Enasidenib, 14 days
# Experimental: as §1, §2
# [3] = tested on: Tg(Runx1:FLT3^ITDIDH2^R172K) and Tg(Runx1:FLT3^ITDIDH2^R140Q) embryos; test: Drug treatment of double transgenic embryos, SBB staining as surrogate for embryonic myelopoiesis; type: in vivo, zebrafish; settings: drugs at 0.01 μM, 0.1 μM and 1 μM from 6 hpf, stained at 4 dpf
# Experimental: as §2
# [4] = tested on: Tg(Runx1:FLT3^ITDIDH2^R140Q) zebrafish; test: 14-day oral gavage treatment of adult Tg(Runx1:FLT3^ITDIDH2^R140Q) fish; type: in vivo; settings: adult Tg(Runx1:FLT3^ITD IDH2^R140Q) double mutant; treatment with Quizartinib and/or Enasidenib, 14 days
# Experimental: as §1, §2
# [5] = tested on: wildtype zebrafish; test: Initial dose-finding study in adult fish, daily oral gavage, survival; type: in vivo; settings: daily gavage of quizartinib at 10 mg/kg, enasidenib at 100 mg/kg, 14 days
# Experimental: as §2, with “days. The gavage apparatus was consisted of a 10 μl microliter syringe (Gaoge, Shanghai, China) and a polyethylene tubing (BTPE-50, INTECH, USA), and was adapted from Collymore et al., 2013 and Dang, Michelle, et al., 2016.” for “days.”
SMILES,blast counts in KM ([1]; alone or combined),erythroid cells in KM / erythropoiesis ([1]; alone or combined),neutrophils in KM ([1]; alone or combined),cellularity in KM ([1]; monotherapy),spleen size [2],embryonic myelopoiesis (cytochemical staining with SBB) [3],spleen size [4],fish survival [5]
"CC(C)(O)CNc1nc(Nc2ccnc(C(F)(F)F)c2)nc(-c2cccc(C(F)(F)F)n2)n1 [enasidenib, Enasidenib]",reduced blast counts in KM,significant increase in neutrophils and erythroid,significant increase in neutrophils,but not enasidenib monotherapy significantly reduced cellularity,decreased spleen sizes,ameliorated the increase in myelopoiesis,no changes were observed in spleen size,compatible with normal fish survival
"CC(C)(C)c1cc(NC(=O)Nc2ccc(-c3cn4c(n3)sc3cc(OCCN5CCOCC5)ccc34)cc2)no1 [quizartinib, Quizartinib]",,,,,,,,compatible with normal fish survival
